Experiments:
[1] = Ratio relative to paclitaxel (EC0.01) was evaluated in a tubulin polymerization assay; format: functional
HCT-116 = test: In vitro cytotoxicity against human colon cancer cell lines (HCT116); format: functional, cell-based
[2] = Cytotoxicity ratio was determined by IC50 to that of IC50 of paclitaxel; format: functional
[3] = Ratio fo the (IC50-R) compound relative to (IC50-S) paclitaxel sensitive HCT116 human colon cancer cell line; format: functional, HCT-116
Mus musculus [4] = test: In vivo anticancer activity against murine M 109 lung carcinoma after intraperitoneal administration at a 50 mg/kg/inj concentration; format: functional
Mus musculus [5] = test: In vivo anticancer activity against murine M 109 lung carcinoma after intraperitoneal administration at a 32 mg/kg/inj concentration; format: functional
Mus musculus [6] = test: In vivo anticancer activity against murine M 109 lung carcinoma after intraperitoneal administration at a 40 mg/kg/inj concentration; format: functional
Mus musculus [7] = test: In vivo anticancer activity against murine M 109 lung carcinoma after intraperitoneal administration at a 60 mg/kg/inj concentration; Range 145-218; format: functional
Mus musculus [8] = test: In vivo anticancer activity against murine M 109 lung carcinoma after intraperitoneal administration at a 1.25 mg/kg/inj concentration; format: functional

SMILES	Ratio [1]	IC50 (HCT-116) [nM]	Ratio [2]	Ratio [3]	T/C (Mus musculus [4])	T/C (Mus musculus [5])	T/C (Mus musculus [6])	T/C (Mus musculus [7])	T/C (Mus musculus [8])
CC(=O)O[C@@]12COC1C[C@H](O)[C@@]1(C)C(=O)[C@H](O)C3=C(C)[C@@H](OC(=O)C(O)[C@@H](NC(=O)NC(C)(C)C)c4ccccc4)CC(O)([C@@H](OC(=O)c4ccccc4)[C@@H]12)C3(C)C (stereo partly specified)	0.72	4	1	46.8					
CCCC/N=C(\S)N[C@@H](c1ccccc1)[C@@H](O)C(=O)O[C@H]1CC2(O)[C@@H](OC(=O)c3ccccc3)[C@H]3[C@](C)(C(=O)[C@H](OC(C)=O)C(=C1C)C2(C)C)[C@@H](O)CC1OC[C@]13OC(C)=O (stereo partly specified)	18	50.2	21.8	64					
CC(=O)O[C@H]1C(=O)[C@]2(C)[C@@H](O)CC3OC[C@@]3(OC(C)=O)[C@H]2[C@H](OC(=O)c2ccccc2)C2(O)C[C@H](OC(=O)[C@H](O)[C@@H](NC(=O)SCC(C)C)c3ccco3)C(C)=C1C2(C)C (stereo partly specified)	0.2	0.7	0.28	7.7	145				
CC(=O)O[C@H]1C(=O)[C@]2(C)[C@@H](O)CC3OC[C@@]3(OC(C)=O)[C@H]2[C@H](OC(=O)c2ccccc2)C2(O)C[C@H](OC(=O)[C@H](O)[C@@H](NC(=O)OC(C)(C)C)c3ccccc3)C(C)=C1C2(C)C (stereo partly specified)	0.66	2.4	0.6	12		177			
CC(=O)O[C@H]1C(=O)[C@]2(C)[C@@H](O)CC3OC[C@@]3(OC(C)=O)[C@H]2[C@H](OC(=O)c2ccccc2)C2(O)C[C@H](OC(=O)[C@H](O)[C@@H](/N=C(\S)NC(C)(C)C)c3ccco3)C(C)=C1C2(C)C (stereo partly specified)	1	11.3	4.9	40					
CCCCSC(=O)N[C@@H](c1ccco1)[C@@H](O)C(=O)O[C@H]1CC2(O)[C@@H](OC(=O)c3ccccc3)[C@H]3[C@](C)(C(=O)[C@H](OC(C)=O)C(=C1C)C2(C)C)[C@@H](O)CC1OC[C@]13OC(C)=O (stereo partly specified)	0.2	0.3	0.17	21.3			139		
CC(=O)O[C@H]1C(=O)[C@]2(C)[C@@H](O)CC3OC[C@@]3(OC(C)=O)[C@H]2[C@H](OC(=O)c2ccccc2)C2(O)C[C@H](OC(=O)[C@H](O)[C@@H](/N=C(\S)NCc3ccccc3)c3ccccc3)C(C)=C1C2(C)C (stereo partly specified)	12	> 87	>40						
CC(=O)O[C@H]1C(=O)[C@]2(C)[C@@H](O)CC3OC[C@@]3(OC(C)=O)[C@H]2[C@H](OC(=O)c2ccccc2)C2(O)C[C@H](OC(=O)[C@H](O)[C@@H](/N=C(\S)NC(C)(C)C)c3ccccc3)C(C)=C1C2(C)C (stereo partly specified)	19	96.7	~50	31					
CC(=O)O[C@H]1C(=O)[C@@]2(C)[C@H]([C@H](OC(=O)c3ccccc3)[C@]3(O)C[C@H](OC(=O)[C@H](O)[C@@H](NC(=O)c4ccccc4)c4ccccc4)C(C)=C1C3(C)C)[C@]1(OC(C)=O)CO[C@@H]1C[C@@H]2O [PACLITAXEL]								145	
CC(=O)O[C@H]1C(=O)[C@]2(C)[C@@H](O)CC3OC[C@@]3(OC(C)=O)[C@H]2[C@H](OC(=O)c2ccccc2)C2(O)C[C@H](OC(=O)[C@H](O)[C@@H](NC(=O)SC(C)(C)C)c3ccccc3)C(C)=C1C2(C)C (stereo partly specified)	0.3	0.9	0.3	4.7					
CC(=O)O[C@H]1C(=O)[C@]2(C)[C@@H](O)CC3OC[C@@]3(OC(C)=O)[C@H]2[C@H](OC(=O)c2ccccc2)C2(O)C[C@H](OC(=O)[C@H](O)[C@@H](NC(=O)SC(C)C)c3ccco3)C(C)=C1C2(C)C (stereo partly specified)	0.2	32.5	14.7	1.2					
CC(=O)O[C@H]1C(=O)[C@]2(C)[C@@H](O)CC3OC[C@@]3(OC(C)=O)[C@H]2[C@H](OC(=O)c2ccccc2)C2(O)C[C@H](OC(=O)[C@H](O)[C@@H](NC(=O)SC(C)(C)C)c3ccco3)C(C)=C1C2(C)C (stereo partly specified)	0.1	0.9	0.3	2.2					134
CCCC/N=C(\S)N[C@@H](c1ccco1)[C@@H](O)C(=O)O[C@H]1CC2(O)[C@@H](OC(=O)c3ccccc3)[C@H]3[C@](C)(C(=O)[C@H](OC(C)=O)C(=C1C)C2(C)C)[C@@H](O)CC1OC[C@]13OC(C)=O (stereo partly specified)	1	10.5	4.6	252					
CCCCSC(=O)N[C@@H](c1ccccc1)[C@@H](O)C(=O)O[C@H]1CC2(O)[C@@H](OC(=O)c3ccccc3)[C@H]3[C@](C)(C(=O)[C@H](OC(C)=O)C(=C1C)C2(C)C)[C@@H](O)CC1OC[C@]13OC(C)=O (stereo partly specified)	0.6	5.8	0.88	29					
